According to the supplement of paper PMC6045584:
± gives the standard deviation of the averaged measurements.

How the values were obtained:
[1] = compound: CC(=O)NCC(=O)N1[C@@H]2CC[C@H]1c1ccc(Nc3ncc(C(F)(F)F)c(NC4CCC4)n3)cc12; assay: surviving fraction relative to DMSO-only wells; higher = less growth inhibition; conditions: exposure time: 5 days
Outline: (§1)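 Viability values are CellTiter-Glo luminescence readings, given as surviving fraction against the median of DMSO-only wells. The readings were taken after 10 minutes at room temperature, following five days of continuous exposure to inhibitors at 0.5, 1, 5, 10, 50, 100, 500 and 1000 nM that began 24 hours after log-phase tumour cell lines were seeded at 250–500 cells per well in 384-well plates. Every line was screened three times and kept only if replicate Pearson r >0.7 and median Z' >0.3.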

PACLITAXEL [2] = compound: T1, CC(=O)O[C@H]1C(=O)[C@@]2(C)[C@H]([C@H](OC(=O)c3ccccc3)[C@]3(O)C[C@H](OC(=O)[C@H](O)[C@@H](NC(=O)c4ccccc4)c4ccccc4)C(C)=C1C3(C)C)[C@]1(OC(C)=O)CO[C@@H]1C[C@@H]2O [PACLITAXEL]; assay: as above; conditions: exposure time: 5 days
Outline: as §1

[3] = compound: CC(=O)c1c(C)c2cnc(Nc3ccc(N4CCNCC4)cn3)nc2n(C2CCCC2)c1=O; assay: as above; conditions: exposure time: 5 days
Outline: as §1

CAMPTOTHECIN [4] = compound: T2, CC[C@@]1(O)C(=O)OCc2c1cc1n(c2=O)Cc2cc3ccccc3nc2-1 [CAMPTOTHECIN]; assay: as above; conditions: exposure time: 5 days
Outline: as §1

YM155 [5] = compound: T3, COCC[n+]1c2c(n(Cc3cnccn3)c1C)C(=O)c1ccccc1C2=O [YM155]; assay: as above; conditions: exposure time: 5 days
Outline: as §1

GEFITINIB [6] = compound: T4, COc1cc2ncnc(Nc3ccc(F)c(Cl)c3)c2cc1OCCCN1CCOCC1 [GEFITINIB]; assay: as above; conditions: exposure time: 5 days
Outline: as §1

OSI-906 [7] = compound: T5, C[C@]1(O)C[C@@H](c2nc(-c3ccc4ccc(-c5ccccc5)nc4c3)c3c(N)nccn32)C1 [OSI-906]; assay: as above; conditions: exposure time: 5 days
Outline: as §1

CELECOXIB [8] = compound: T6, Cc1ccc(-c2cc(C(F)(F)F)nn2-c2ccc(S(N)(=O)=O)cc2)cc1 [CELECOXIB]; assay: as above; conditions: exposure time: 5 days
Outline: as §1

CARBOPLATIN = compound: O=C(O)C1(C(=O)O)CCC1.[NH2-].[NH2-].[Pt+2] [CARBOPLATIN]; assay: as above; conditions: exposure time: 5 days
Outline: as §1

[9] = compound: CC(=O)NCC(=O)N1[C@@H]2CC[C@H]1c1ccc(Nc3ncc(C(F)(F)F)c(NC4CCC4)n3)cc12; assay: area under dose-response curve of surviving fraction (unscaled, Aref=0) (surviving fraction x log10(nM)); higher = more resistant; conditions: exposure time: 5 days; dose range 0.5-1000 nM
Outline: (§2)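 Tumour cell lines in 384-well plates were exposed for five days to eight inhibitor concentrations from 0.5 to 1000 nM. Viability was read by CellTiter-Glo luminescence, normalised to DMSO-only wells, in three screens per line. Dose-response survival curves were fitted to surviving fractions by 3-parameter logistic regression in the drc R package. Area under the curve is the unscaled activity area (Aref = 0) over log10 dose.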

PACLITAXEL [10] = compound: T1, PACLITAXEL; assay: as above; conditions: exposure time: 5 days; dose range 0.5-1000 nM
Outline: as §2

CAMPTOTHECIN [11] = compound: T2, CAMPTOTHECIN; assay: as above; conditions: exposure time: 5 days; dose range 0.5-1000 nM
Outline: as §2

YM155 [12] = compound: T3, YM155; assay: as above; conditions: exposure time: 5 days; dose range 0.5-1000 nM
Outline: as §2

GEFITINIB [13] = compound: T4, GEFITINIB; assay: as above; conditions: exposure time: 5 days; dose range 0.5-1000 nM
Outline: as §2

OSI-906 [14] = compound: T5, OSI-906; assay: as above; conditions: exposure time: 5 days; dose range 0.5-1000 nM
Outline: as §2

CELECOXIB [15] = compound: T6, CELECOXIB; assay: as above; conditions: exposure time: 5 days; dose range 0.5-1000 nM
Outline: as §2

Test System: SCC47 HEADNECK
- surviving fraction ([1]; 0.5 nM): 0.82 ± 0.0084
- surviving fraction ([1]; 1 nM): 0.815 ± 0.033
- surviving fraction ([1]; 5 nM): 1.01 ± 0.099
- surviving fraction ([1]; 10 nM): 0.974 ± 0.1
- surviving fraction ([1]; 50 nM): 1.01 ± 0.086
- surviving fraction ([1]; 100 nM): 0.904 ± 0.058
- surviving fraction ([1]; 500 nM): 0.542 ± 0.02
- surviving fraction ([1]; 1000 nM): 0.521 ± 0.047
- surviving fraction (PACLITAXEL [2]; 0.5 nM): 1 ± 0.079
- surviving fraction (PACLITAXEL [2]; 1 nM): 0.749 ± 0.029
- surviving fraction (PACLITAXEL [2]; 5 nM): 0.37 ± 0.015
- surviving fraction (PACLITAXEL [2]; 10 nM): 0.199 ± 0.015
- surviving fraction (PACLITAXEL [2]; 50 nM): 0.143 ± 0.01
- surviving fraction (PACLITAXEL [2]; 100 nM): 0.141 ± 0.0051
- surviving fraction (PACLITAXEL [2]; 500 nM): 0.1213 ± 0.00058
- surviving fraction (PACLITAXEL [2]; 1000 nM): 0.115 ± 0.015
- surviving fraction ([3]; 0.5 nM): 1.12 ± 0.087
- surviving fraction ([3]; 1 nM): 1.05 ± 0.03
- surviving fraction ([3]; 5 nM): 1.13 ± 0.072
- surviving fraction ([3]; 10 nM): 1.1 ± 0.013
- surviving fraction ([3]; 50 nM): 1.17 ± 0.065
- surviving fraction ([3]; 100 nM): 1.1 ± 0.091
- surviving fraction ([3]; 500 nM): 1.1 ± 0.035
- surviving fraction ([3]; 1000 nM): 1.04 ± 0.048
- surviving fraction (CAMPTOTHECIN [4]; 0.5 nM): 0.917 ± 0.019
- surviving fraction (CAMPTOTHECIN [4]; 1 nM): 0.924 ± 0.086
- surviving fraction (CAMPTOTHECIN [4]; 5 nM): 0.959 ± 0.019
- surviving fraction (CAMPTOTHECIN [4]; 10 nM): 0.919 ± 0.016
- surviving fraction (CAMPTOTHECIN [4]; 50 nM): 0.46 ± 0.012
- surviving fraction (CAMPTOTHECIN [4]; 100 nM): 0.375 ± 0.029
- surviving fraction (CAMPTOTHECIN [4]; 500 nM): 0.204 ± 0.0038
- surviving fraction (CAMPTOTHECIN [4]; 1000 nM): 0.118 ± 0.0095
- surviving fraction (YM155 [5]; 0.5 nM): 1.01 ± 0.13
- surviving fraction (YM155 [5]; 1 nM): 0.998 ± 0.023
- surviving fraction (YM155 [5]; 5 nM): 0.916 ± 0.087
- surviving fraction (YM155 [5]; 10 nM): 0.435 ± 0.069
- surviving fraction (YM155 [5]; 50 nM): 0.0263 ± 0.0025
- surviving fraction (YM155 [5]; 100 nM): 0.021 ± 0.001
- surviving fraction (YM155 [5]; 500 nM): 0.0197 ± 0.00058
- surviving fraction (YM155 [5]; 1000 nM): 0.023 ± 0.001
- surviving fraction (GEFITINIB [6]; 0.5 nM): 1.1 ± 0.034
- surviving fraction (GEFITINIB [6]; 1 nM): 1.1 ± 0.058
- surviving fraction (GEFITINIB [6]; 5 nM): 1.12 ± 0.043
- surviving fraction (GEFITINIB [6]; 10 nM): 1.06 ± 0.053
- surviving fraction (GEFITINIB [6]; 50 nM): 0.993 ± 0.017
- surviving fraction (GEFITINIB [6]; 100 nM): 0.899 ± 0.028
- surviving fraction (GEFITINIB [6]; 500 nM): 0.649 ± 0.018
- surviving fraction (GEFITINIB [6]; 1000 nM): 0.602 ± 0.039
- surviving fraction (OSI-906 [7]; 0.5 nM): 0.976 ± 0.025
- surviving fraction (OSI-906 [7]; 1 nM): 0.952 ± 0.046
- surviving fraction (OSI-906 [7]; 5 nM): 1.04 ± 0.069
- surviving fraction (OSI-906 [7]; 10 nM): 1.02 ± 0.12
- surviving fraction (OSI-906 [7]; 50 nM): 1.091 ± 0.0056
- surviving fraction (OSI-906 [7]; 100 nM): 1.07 ± 0.062
- surviving fraction (OSI-906 [7]; 500 nM): 1 ± 0.011
- surviving fraction (OSI-906 [7]; 1000 nM): 1.04 ± 0.11
- surviving fraction (CELECOXIB [8]; 0.5 nM): 1.08 ± 0.089
- surviving fraction (CELECOXIB [8]; 1 nM): 1.11 ± 0.092
- surviving fraction (CELECOXIB [8]; 5 nM): 1.09 ± 0.096
- surviving fraction (CELECOXIB [8]; 10 nM): 1.12 ± 0.067
- surviving fraction (CELECOXIB [8]; 50 nM): 1.094 ± 0.0075
- surviving fraction (CELECOXIB [8]; 100 nM): 1.1 ± 0.026
- surviving fraction (CELECOXIB [8]; 500 nM): 1.1 ± 0.054
- surviving fraction (CELECOXIB [8]; 1000 nM): 1.11 ± 0.033
- surviving fraction (CARBOPLATIN; 0.5 nM): 1.21 ± 0.072
- surviving fraction (CARBOPLATIN; 1 nM): 1.17 ± 0.042
- surviving fraction (CARBOPLATIN; 5 nM): 1.19 ± 0.017
- surviving fraction (CARBOPLATIN; 10 nM): 1.19 ± 0.071
- surviving fraction (CARBOPLATIN; 50 nM): 1.26 ± 0.054
- surviving fraction (CARBOPLATIN; 100 nM): 1.21 ± 0.16
- surviving fraction (CARBOPLATIN; 500 nM): 1.14 ± 0.019
- surviving fraction (CARBOPLATIN; 1000 nM): 1.08 ± 0.045
- area under dose-response curve [9]: 2.87
- area under dose-response curve (PACLITAXEL [10]): 1.02
- area under dose-response curve (CAMPTOTHECIN [11]): 2.11
- area under dose-response curve (YM155 [12]): 1.31
- area under dose-response curve (GEFITINIB [13]): 3
- area under dose-response curve (OSI-906 [14]): 3.41
- area under dose-response curve (CELECOXIB [15]): 3.63
